Assay results reported in patent publication US10752596B2, “Nitrogen-containing heteroaryl compound and pharmaceutical use thereof” (JAPAN TOBACCO INC., priority 2017, dated 2020).
Structures can show the parent of a compound that is named as a salt.

These molecules were tested against human GLUT9 (Homo sapiens (Human), UniProt Q9NRM0) (assay: Evaluation of human GLUT9 inhibitory activity ([14C] uric acid uptake in human GLUT9 expressing HEK293T cells transduced with Uricase/Hyper)). Settings: HEK-293T, 10 μM compound, human GLUT9 stably expressing HEK293T cells, read-out: GLUT9 inhibitory rate at 10 μM of compound.
Sequence of human GLUT9 (Q9NRM0 other isoform, or with tags, fused parts or gaps): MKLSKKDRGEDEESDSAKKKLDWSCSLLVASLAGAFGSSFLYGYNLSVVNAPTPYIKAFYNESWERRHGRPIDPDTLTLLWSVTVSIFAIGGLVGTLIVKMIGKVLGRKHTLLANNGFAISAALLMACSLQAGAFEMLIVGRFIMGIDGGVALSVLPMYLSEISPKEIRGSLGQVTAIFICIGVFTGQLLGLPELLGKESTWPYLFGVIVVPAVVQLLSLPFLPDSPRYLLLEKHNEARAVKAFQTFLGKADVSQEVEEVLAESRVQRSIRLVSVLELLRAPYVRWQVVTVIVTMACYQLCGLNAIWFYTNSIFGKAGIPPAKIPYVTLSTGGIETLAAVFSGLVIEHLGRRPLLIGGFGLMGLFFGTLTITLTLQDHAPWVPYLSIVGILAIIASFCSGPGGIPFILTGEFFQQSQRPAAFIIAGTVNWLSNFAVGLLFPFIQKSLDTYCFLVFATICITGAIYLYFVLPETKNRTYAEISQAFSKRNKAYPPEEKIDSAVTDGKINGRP
Assay type: cell-based
Experimental: A method for measuring GLUT9 inhibitory activity using human GLUT9 expressing cells transduced with Uricase/Hyper is shown hereinafter. GLUT9 inhibitory activity ([…]) of the test compound was calculated based on the intracellular uptake amount of labeled uric acid ([^14C] uric acid) transported by GLUT9.
1. Preparation of Human GLUT9 Expression Plasmid
Human GLUT9S coding region (NM_001001290.1) was amplified by PCR method using PrimeSTAR MAX DNA Polymerase (Takara Bio). The obtained PCR product was subjected to agarose gel electrophoresis, and the desired size of PCR product was purified by QIAquick Gel Extraction Kit (QIAGEN). Next, pEBMulti-Bsd vector (Wako Pure Chemical Industries, Ltd.) was subjected to digestion using restriction enzymes SalI and EcoR V, and linked to the PCR product containing GLUT9S by In-Fusion reaction using In-Fusion HD Cloning Kit (Takara Bio). XL10-Gold Competent Cells (Agilent Technologies) were transformed in In-Fusion reaction solution, and the obtained transfectants were cultured with shaking overnight in LB medium to which Blasticidin S HCl (Thermo Fisher Scientific) was added. Human GLUT9 expression plasmid DNA was prepared from the collected transfectants using EndoFree Plasmid Kit (Takara Bio).
2. Establish of Human GLUT9 Stably Expressing Cell
HEK293T cells (American Type Culture Collection, DS Pharma Biomedical) were seeded in a 6 well plate at 1×10^6 cells/well. Next day, human GLUT9 expression plasmid was transfected by using Lipofectamine 3000 Reagent (Thermo Fisher Scientific) as follows. Lipofectamine 3000 Reagent (5 μL) was diluted with Opti-MEM (125 μL, Thermo Fisher Scientific). Separately, plasmid DNA (2.5 μg) was diluted with Opti-MEM (125 μL), and P3000 Reagent (5 μL) was added thereto. The obtained solution was mixed with the previously obtained diluted solution, and the mixture was left stand at room temperature for 5 min, and added to the cells. Next day, the transfected cells were diluted and reseeded in a 6 well plate at 4×10^5 cells/well, and drug selection was performed in the presence of 30 μg/mL of Blasticidin S HCl, and thereby, Blasticidin-resistant human GLUT9 stably expressing cell line was established. Mock cells were prepared by introducing pEBMulti-Bsd vector into HEK293T cells in a similar manner.
3. Preparation of Uricase/Hyper Expression Plasmid
Uricase/Hyper expression plasmid was prepared by linking the coding regions of Aspergillus Flavus-derived uricase gene and pHyPer-Cyto vector (Evrogen) HyPer gene to the pEBMulti-Hyg vector (Wako Pure Chemical Industries, Ltd.) and then introducing it. The preparation method was performed by reference to Gout and Nucleic Acid Metabolism 2013, 37(2), 93-101, and seven repeated linker sequence of glycine-glycine-glycine-serine was prepared herein.
4. Preparation of Human GLUT9-Uricase/Hyper Coexpressing Cell
Human GLUT9 stably expressing cells were seeded at 3.6×10^7 cells per 225 cm^2 flask. Next day, Uricase/Hyper expression plasmid was transfected by using Lipofectamine 3000 Reagent as follows. Lipofectamine 3000 Reagent (40 μL) was diluted with Opti-MEM (750 μL). Separately, plasmid DNA (20 μg) was diluted with Opti-MEM (750 μL), and P3000 Reagent (40 μL) was added thereto. The obtained solution was mixed with the previously obtained diluted solution, and the mixture was left stand at room temperature for 5 min, and added to the cells. Next day, transfected cells were collected to prepare human GLUT9-Uricase/Hyper coexpressing cells.
5. Evaluation of GLUT9 Inhibitory Activity
Uricase/Hyper transiently-transfected human GLUT9 stably expressing cells or mock cells (blank) were seeded in a 96 well plate (Corning) at 1.6×10^5 cells/well, and cultured overnight at 37° C., 5% CO2. D-MEM/high glucose (Wako Pure Chemical Industries, Ltd.) containing 10% Fetal Bovine Serum (Lifetechnology) and 100 units/ml penicillin/100 μg/ml streptomycin (GIBCO) was used as a medium.

| inhibition at 10 µM [%] | SMILES |
| --- | --- |
| 9 | CCCCc1cnc(-c2ccc(C(=O)O)cc2)c(-c2ccc(C(=O)O)cc2)n1 [Example 7] |
| 5 | CCCCc1cnc(-c2ccc(OC)c(C(=O)O)c2)c(-c2ccc(C(=O)O)cc2)n1 [Example 15] |
| 9 | CCCCc1cnc(-c2ccc(C(=O)N(C)C)cc2)c(-c2ccc(C(=O)O)cc2)n1 [Example 22] |
| 28 | CCCCc1cnc(-c2ccc(O)cc2)c(-c2ccc(C(=O)O)cc2)n1 [Example 33] |
| 47 | COc1ccc(-c2ncc(CC3CCCCC3)cc2-c2ccc(C(=O)O)cc2)cc1 [Example 47] |
| 45 | COc1ccc(-c2ncc(C3CCOCC3)cc2-c2ccc(C(=O)O)cc2)cc1 [Example 60] |
| 10 | CCCCNC(=O)c1cnc(-c2ccc(OC)cc2)c(-c2ccc(C(=O)O)cc2)c1 [Example 76, 4-(5-(butylcarbamoyl)-2-(4-methoxyphenyl)pyridin-3-yl)benzoic Acid Hydrochloride] |

Same assay, conditions: final 300 μM uric acid, 6 min, human GLUT9 stably expressing HEK293T cells, read-out: humans GLUT9 inhibitory activity (IC50 value (μM))

| IC50 [µM] | SMILES |
| --- | --- |
| 0.0807 | CCCCc1cnc(-c2ccc(OC)cc2)c(-c2ccc(C(=O)O)cc2)n1 [Example 1] |
| 0.946 | CCCCc1cnc(-c2ccc(OC)cc2C)c(-c2ccc(C(=O)O)cc2)n1 [Example 2] |
| 0.134 | CCCCc1cnc(-c2ccc(OC)cc2F)c(-c2ccc(C(=O)O)cc2)n1 [Example 3] |
| 0.0626 | CCCCc1cnc(-c2ccc(OC)cc2)c(-c2ccc(C(=O)O)cc2F)n1 [Example 5] |
| 0.141 | CCCCc1cnc(-c2ccc(OC)cc2)c(-c2ccc(C(=O)O)c(OC)c2)n1 [Example 6] |
| 0.483 | CCCCc1cnc(-c2ccc(C#N)cc2)c(-c2ccc(C(=O)O)cc2)n1 [Example 9] |
| 1.78 | CCCCc1cnc(-c2ccc(F)cc2)c(-c2ccc(C(=O)O)cc2)n1 [Example 10] |
| 0.0659 | CCCCc1cnc(-c2ccc(OC)c(F)c2)c(-c2ccc(C(=O)O)cc2)n1 [Example 11] |
| 5.06 | COc1ccc(-c2ncc3c(c2-c2ccc(C(=O)O)cc2)CCCC3)cc1 [Example 12] |
| 0.0914 | CCCCc1cnc(-c2ccc(OC)cc2)c(-c2ccc(C(=O)O)c(F)c2)n1 [Example 14] |
| 0.0819 | CCCCc1cnc(-c2ccc(OC)c(Cl)c2)c(-c2ccc(C(=O)O)cc2)n1 [Example 16] |
| 0.692 | CCCCc1cnc(-c2ccc(OC)c(C#N)c2)c(-c2ccc(C(=O)O)cc2)n1 [Example 17] |
| 0.0942 | CCCCc1cnc(-c2ccc(OC)cc2)c(-c2ccc(C(=O)O)cc2)c1 [Example 18] |
| 3.07 | CCCCc1cnc(-c2ccc(OC)c(C(F)(F)F)c2)c(-c2ccc(C(=O)O)cc2)n1 [Example 19] |
| 0.12 | COCCCCc1cnc(-c2ccc(OC)cc2)c(-c2ccc(C(=O)O)cc2)n1 [Example 20] |
| 0.0607 | CCCCc1cnc(-c2cc(F)c(OC)c(F)c2)c(-c2ccc(C(=O)O)cc2)n1 [Example 21] |
| 0.992 | CCCCc1cnc(-c2ccc(C(F)(F)F)c(OC)c2)c(-c2ccc(C(=O)O)cc2)n1 [Example 23] |
| 0.134 | CCCCc1cnc(-c2ccc(C(F)(F)F)c(F)c2)c(-c2ccc(C(=O)O)cc2)n1 [Example 24] |
| 0.154 | CCCCc1cnc(-c2ccc(C(F)(F)F)c(C)c2)c(-c2ccc(C(=O)O)cc2)n1 [Example 26] |
| 4.25 | CCCCc1cnc(-c2ccc(C(F)(F)F)c(C(F)(F)F)c2)c(-c2ccc(C(=O)O)cc2)n1 [Example 28] |
| 0.134 | CCCCc1cnc(-c2ccc(Cl)cc2)c(-c2ccc(C(=O)O)cc2)n1 [Example 31] |
| 0.0888 | CCCCc1cnc(-c2ccc3c(c2)CCO3)c(-c2ccc(C(=O)O)cc2)n1 [Example 32] |
| 0.124 | CCCCc1cnc(-c2ccc(C3CC3)cc2)c(-c2ccc(C(=O)O)cc2)n1 [Example 34] |
| 0.119 | COCCCCc1cnc(-c2cc(F)c(OC)c(F)c2)c(-c2ccc(C(=O)O)cc2)n1 [Example 35] |
| 0.189 | CCCc1cnc(-c2ccc(C(F)(F)F)cc2)c(-c2ccc(C(=O)O)cc2)n1 [Example 36] |
| 0.111 | CCCc1cnc(-c2ccc(OC)cc2)c(-c2ccc(C(=O)O)cc2)n1 [Example 37] |
| 0.865 | CCCCc1cnc(-c2ccc(OC)cc2)c(-c2ccc(CC(=O)O)cc2)n1 [Example 38] |

| IC50 [µM] | SMILES |
| --- | --- |
| 1.45 | CCCCc1cnc(-c2ccc(OC)cc2)c(-c2ccc(C(=O)O)cc2)c1C [Example 39] |
| 6.5 | COc1ccc(-c2ncc(CCC3CCCCC3)cc2-c2ccc(C(=O)O)cc2)cc1 [Example 42] |
| 7.13 | COc1ccc(-c2ncc(CCCOCCO)cc2-c2ccc(C(=O)O)cc2)cc1 [Example 43] |
| 1.65 | COc1ccc(-c2ncc(CCCC3(O)CCC3)cc2-c2ccc(C(=O)O)cc2)cc1 [Example 44] |
| 7.12 | CCCCc1cnc(-c2ccc(OC)cc2)c(-c2ccc(C(C)(C)C(=O)O)cc2)n1 [Example 48] |
| 0.201 | CCCCc1cnc(-c2ccc3c(c2)CCCO3)c(-c2ccc(C(=O)O)cc2)n1 [Example 49] |
| 0.133 | CCCCc1cnc(-c2ccc3c(c2)OCCO3)c(-c2ccc(C(=O)O)cc2)n1 [Example 50] |
| 0.962 | COc1ccc(-c2ncc(CCCCO)cc2-c2ccc(C(=O)O)cc2)cc1 [Example 51] |
| 0.119 | COc1ccc(-c2ncc(CCC3CC3)cc2-c2ccc(C(=O)O)cc2)cc1 [Example 52] |
| 3.99 | CCCCc1cnc(-c2ccc(C(C)(C)C)cc2)c(-c2ccc(C(=O)O)cc2)n1 [Example 55] |
| 0.18 | CCc1cnc(-c2ccc(OC)cc2)c(-c2ccc(C(=O)O)cc2)c1 [Example 56] |
| 0.344 | COc1ccc(-c2ncc(C(C)C)cc2-c2ccc(C(=O)O)cc2)cc1 [Example 57] |
| 0.052 | COc1ccc(-c2ncc(CC(C)C)cc2-c2ccc(C(=O)O)cc2)cc1 [Example 58] |
| 0.132 | COc1ccc(-c2ncc(C3CCCC3)cc2-c2ccc(C(=O)O)cc2)cc1 [Example 59] |
| 5.59 | COc1ccc(-c2ncc(CCCO)cc2-c2ccc(C(=O)O)cc2)cc1 [Example 61] |
| 0.127 | COc1ccc(-c2ncc(CCC(F)(F)F)cc2-c2ccc(C(=O)O)cc2)cc1 [Example 62] |
| 0.659 | COc1ccc(-c2ncc(CCC3CCCC3)cc2-c2ccc(C(=O)O)cc2)cc1 [Example 63] |
| 0.0987 | CCCCc1cnc(-c2cc(F)c(OC)c(Cl)c2)c(-c2ccc(C(=O)O)cc2)n1 [Example 64] |
| 0.0946 | CCCCc1cnc(-c2cc(Cl)c(OC)c(Cl)c2)c(-c2ccc(C(=O)O)cc2)n1 [Example 65] |
| 0.077 | CCCc1cnc(-c2cc(F)c(OC)c(F)c2)c(-c2ccc(C(=O)O)cc2)n1 [Example 66] |
| 0.856 | CCCCc1cnc(-c2ccc(OC)cc2)c(-c2cc(F)c(C(=O)O)c(F)c2)n1 [Example 69] |
| 1.67 | CCCCc1cnc(-c2ccc(OC)cc2)c(-c2ccc(OCC(=O)O)cc2)n1 [Example 70] |
| 0.132 | CCCCc1cnc(-c2ccc(OC)cc2)c(-c2ccc(CCC(=O)O)cc2)n1 [Example 71] |
| 0.526 | CCCCc1cnc(-c2ccc(OC)cc2)c(-c2ccc(CC(=O)O)c(F)c2)n1 [Example 72] |
| 0.104 | CCOCCc1cnc(-c2ccc(OC)cc2)c(-c2ccc(C(=O)O)cc2)c1 [Example 73] |
| 0.0844 | CCCCc1cnc(-c2ccc(OC(F)(F)F)cc2)c(-c2ccc(C(=O)O)cc2)n1 [Example 75] |
| 0.0585 | CCOCCCc1cnc(-c2ccc(OC)cc2)c(-c2ccc(C(=O)O)cc2)c1 [Example 77] |
